Laboratory results taken from the supplement of paper PMC10307832.

Experiments:
Experiment in all cases: relative viability (nuclei count vs DMSO), 5 days (fraction); higher = more cells survive
Pazopanib + Dasatinib = compound: Cc1ccc(Nc2nccc(N(C)c3ccc4c(C)n(C)nc4c3)n2)cc1S(N)(=O)=O [Pazopanib] + Cc1nc(Nc2ncc(C(=O)Nc3c(C)cccc3Cl)s2)cc(N2CCN(CCO)CC2)n1 [Dasatinib] (partner 0.075 µM)
Summary of the method: (§1)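 Relative viability equals treated-well nuclei counts divided by vehicle-well nuclei counts. Counts came from 4× images of lung cancer cell lines grown in 1536-well plates for 5 days after pin-tool dosing on the day after seeding. Dosing used one drug alone or a fixed anchor-drug dose plus five library-drug doses (not always all listed) in √10 steps, and values are medians of duplicate plates.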

Pazopanib + Luminespib = compound: Cc1ccc(Nc2nccc(N(C)c3ccc4c(C)n(C)nc4c3)n2)cc1S(N)(=O)=O [Pazopanib] + CCNC(=O)c1noc(-c2cc(C(C)C)c(O)cc2O)c1-c1ccc(CN2CCOCC2)cc1 [Luminespib] (partner 0.01 µM)
Summary of the method: as §1

Ponatinib + Bortezomib = compound: Cc1ccc(C(=O)Nc2ccc(CN3CCN(C)CC3)c(C(F)(F)F)c2)cc1C#Cc1cnc2cccnn12 [Ponatinib] + CC(C)C[C@H](NC(=O)[C@H](Cc1ccccc1)NC(=O)c1cnccn1)B(O)O [Bortezomib] (partner 0.002 µM)
Summary of the method: as §1

Ponatinib + Decitabine = compound: Cc1ccc(C(=O)Nc2ccc(CN3CCN(C)CC3)c(C(F)(F)F)c2)cc1C#Cc1cnc2cccnn12 [Ponatinib] + Nc1ncn([C@H]2C[C@H](O)[C@@H](CO)O2)c(=O)n1 [Decitabine] (partner 2 µM)
Summary of the method: as §1

NCI-H3122 showed a relative viability (Pazopanib + Dasatinib; first compound 0.01 µM) of 0.815, a relative viability (Pazopanib + Dasatinib; first compound 0.03162 µM) of 0.895 and a relative viability (Pazopanib + Dasatinib; first compound 0.1 µM) of 0.756. It also gave a relative viability (Pazopanib + Dasatinib; first compound 0.3162 µM) of 0.785, a relative viability (Pazopanib + Dasatinib; first compound 1 µM) of 0.5 and a relative viability (Pazopanib + Luminespib; first compound 0.01 µM) of 0.0969. It also gave a relative viability (Pazopanib + Luminespib; first compound 0.03162 µM) of 0.0909, a relative viability (Pazopanib + Luminespib; first compound 0.1 µM) of 0.106 and a relative viability (Pazopanib + Luminespib; first compound 0.3162 µM) of 0.0886. It also gave a relative viability (Pazopanib + Luminespib; first compound 1 µM) of 0.0721, a relative viability (Ponatinib + Bortezomib; first compound 0.002 µM) of 1.02 and a relative viability (Ponatinib + Bortezomib; first compound 0.006325 µM) of 1.02. The relative viability (Ponatinib + Bortezomib; first compound 0.06325 µM) was 1.02, the relative viability (Ponatinib + Bortezomib; first compound 0.2 µM) was 1 and the relative viability (Ponatinib + Decitabine; first compound 0.002 µM) was 0.457. It also gave a relative viability (Ponatinib + Decitabine; first compound 0.006325 µM) of 0.545, a relative viability (Ponatinib + Decitabine; first compound 0.06325 µM) of 0.472 and a relative viability (Ponatinib + Decitabine; first compound 0.2 µM) of 0.411.
In the case of PC-3 [JPC-3], the relative viability (Pazopanib + Dasatinib; first compound 0.01 µM) is reported as 0.991, the relative viability (Pazopanib + Dasatinib; first compound 0.03162 µM) is reported as 0.939 and the relative viability (Pazopanib + Dasatinib; first compound 0.1 µM) is reported as 1.11. For the same cell line, the relative viability (Pazopanib + Dasatinib; first compound 0.3162 µM) was 0.939, the relative viability (Pazopanib + Dasatinib; first compound 1 µM) was 0.983 and the relative viability (Pazopanib + Luminespib; first compound 0.01 µM) was 0.784. It also gave a relative viability (Pazopanib + Luminespib; first compound 0.03162 µM) of 0.59, a relative viability (Pazopanib + Luminespib; first compound 0.1 µM) of 0.65 and a relative viability (Pazopanib + Luminespib; first compound 0.3162 µM) of 0.69. The relative viability (Pazopanib + Luminespib; first compound 1 µM) was 0.65, the relative viability (Ponatinib + Bortezomib; first compound 0.002 µM) was 0.826 and the relative viability (Ponatinib + Bortezomib; first compound 0.006325 µM) was 0.812. It also gave a relative viability (Ponatinib + Bortezomib; first compound 0.06325 µM) of 0.961, a relative viability (Ponatinib + Bortezomib; first compound 0.2 µM) of 0.815 and a relative viability (Ponatinib + Decitabine; first compound 0.006325 µM) of 0.871. For the same cell line, the relative viability (Ponatinib + Decitabine; first compound 0.06325 µM) was 0.849 and the relative viability (Ponatinib + Decitabine; first compound 0.2 µM) was 0.838.
Cell Line PC-14 has a relative viability (Pazopanib + Dasatinib; first compound 0.01 µM) of 0.27, a relative viability (Pazopanib + Dasatinib; first compound 0.03162 µM) of 0.241 and a relative viability (Pazopanib + Dasatinib; first compound 0.1 µM) of 0.288. For the same cell line, the relative viability (Pazopanib + Dasatinib; first compound 0.3162 µM) was 0.267, the relative viability (Pazopanib + Dasatinib; first compound 1 µM) was 0.266 and the relative viability (Pazopanib + Luminespib; first compound 0.01 µM) was 0.155. The relative viability (Pazopanib + Luminespib; first compound 0.03162 µM) was 0.177, the relative viability (Pazopanib + Luminespib; first compound 0.1 µM) was 0.173 and the relative viability (Pazopanib + Luminespib; first compound 0.3162 µM) was 0.177. For the same cell line, the relative viability (Pazopanib + Luminespib; first compound 1 µM) was 0.142, the relative viability (Ponatinib + Bortezomib; first compound 0.002 µM) was 0.846 and the relative viability (Ponatinib + Bortezomib; first compound 0.006325 µM) was 0.944. It also gave a relative viability (Ponatinib + Bortezomib; first compound 0.06325 µM) of 1.02, a relative viability (Ponatinib + Bortezomib; first compound 0.2 µM) of 0.875 and a relative viability (Ponatinib + Decitabine; first compound 0.002 µM) of 0.214. For the same cell line, the relative viability (Ponatinib + Decitabine; first compound 0.006325 µM) was 0.222, the relative viability (Ponatinib + Decitabine; first compound 0.06325 µM) was 0.232 and the relative viability (Ponatinib + Decitabine; first compound 0.2 µM) was 0.214.
For RERF-LC-KJ, the relative viability (Pazopanib + Dasatinib; first compound 0.01 µM) was 0.836, the relative viability (Pazopanib + Dasatinib; first compound 0.03162 µM) was 0.773 and the relative viability (Pazopanib + Dasatinib; first compound 0.1 µM) was 0.915. It also gave a relative viability (Pazopanib + Dasatinib; first compound 0.3162 µM) of 0.722, a relative viability (Pazopanib + Dasatinib; first compound 1 µM) of 0.765 and a relative viability (Pazopanib + Luminespib; first compound 0.01 µM) of 1.31. It also gave a relative viability (Pazopanib + Luminespib; first compound 0.03162 µM) of 1.36, a relative viability (Pazopanib + Luminespib; first compound 0.1 µM) of 1.29 and a relative viability (Pazopanib + Luminespib; first compound 0.3162 µM) of 1.23. The relative viability (Pazopanib + Luminespib; first compound 1 µM) was 1.23, the relative viability (Ponatinib + Bortezomib; first compound 0.002 µM) was 1.06 and the relative viability (Ponatinib + Bortezomib; first compound 0.006325 µM) was 0.988. The relative viability (Ponatinib + Bortezomib; first compound 0.06325 µM) was 1.2, the relative viability (Ponatinib + Bortezomib; first compound 0.2 µM) was 1.15 and the relative viability (Ponatinib + Decitabine; first compound 0.002 µM) was 0.646. The relative viability (Ponatinib + Decitabine; first compound 0.006325 µM) was 0.724, the relative viability (Ponatinib + Decitabine; first compound 0.06325 µM) was 0.835 and the relative viability (Ponatinib + Decitabine; first compound 0.2 µM) was 0.665.
For SK-LU-1, the relative viability (Pazopanib + Dasatinib; first compound 0.01 µM) was 0.142, the relative viability (Pazopanib + Dasatinib; first compound 0.03162 µM) was 0.179 and the relative viability (Pazopanib + Dasatinib; first compound 0.1 µM) was 0.192. It also gave a relative viability (Pazopanib + Dasatinib; first compound 0.3162 µM) of 0.189, a relative viability (Pazopanib + Dasatinib; first compound 1 µM) of 0.174 and a relative viability (Pazopanib + Luminespib; first compound 0.01 µM) of 0.222. It also gave a relative viability (Pazopanib + Luminespib; first compound 0.03162 µM) of 0.221, a relative viability (Pazopanib + Luminespib; first compound 0.1 µM) of 0.175 and a relative viability (Pazopanib + Luminespib; first compound 0.3162 µM) of 0.22. The relative viability (Pazopanib + Luminespib; first compound 1 µM) was 0.232, the relative viability (Ponatinib + Bortezomib; first compound 0.002 µM) was 1.01 and the relative viability (Ponatinib + Bortezomib; first compound 0.006325 µM) was 1.01. For the same cell line, the relative viability (Ponatinib + Bortezomib; first compound 0.06325 µM) was 0.949, the relative viability (Ponatinib + Bortezomib; first compound 0.2 µM) was 0.757 and the relative viability (Ponatinib + Decitabine; first compound 0.002 µM) was 0.562. It also gave a relative viability (Ponatinib + Decitabine; first compound 0.006325 µM) of 0.569, a relative viability (Ponatinib + Decitabine; first compound 0.06325 µM) of 0.639 and a relative viability (Ponatinib + Decitabine; first compound 0.2 µM) of 0.555.
With SW 1573 the relative viability (Pazopanib + Dasatinib; first compound 0.01 µM) was 0.588, the relative viability (Pazopanib + Dasatinib; first compound 0.03162 µM) was 0.717 and the relative viability (Pazopanib + Dasatinib; first compound 0.1 µM) was 0.621. It also gave a relative viability (Pazopanib + Dasatinib; first compound 0.3162 µM) of 0.451, a relative viability (Pazopanib + Dasatinib; first compound 1 µM) of 0.561 and a relative viability (Pazopanib + Luminespib; first compound 0.01 µM) of 0.24. For the same cell line, the relative viability (Pazopanib + Luminespib; first compound 0.03162 µM) was 0.17, the relative viability (Pazopanib + Luminespib; first compound 0.1 µM) was 0.266 and the relative viability (Pazopanib + Luminespib; first compound 0.3162 µM) was 0.205. For the same cell line, the relative viability (Pazopanib + Luminespib; first compound 1 µM) was 0.236, the relative viability (Ponatinib + Bortezomib; first compound 0.002 µM) was 0.971 and the relative viability (Ponatinib + Bortezomib; first compound 0.006325 µM) was 1.02. For the same cell line, the relative viability (Ponatinib + Bortezomib; first compound 0.06325 µM) was 1.03, the relative viability (Ponatinib + Bortezomib; first compound 0.2 µM) was 0.997 and the relative viability (Ponatinib + Decitabine; first compound 0.002 µM) was 0.463. For the same cell line, the relative viability (Ponatinib + Decitabine; first compound 0.006325 µM) was 0.458, the relative viability (Ponatinib + Decitabine; first compound 0.06325 µM) was 0.695 and the relative viability (Ponatinib + Decitabine; first compound 0.2 µM) was 0.46.
